Active and inactive are the calls of the source. Where only a bound is given, the exact number is not on record here.

Consider two compounds from ChEMBL document CHEMBL1201862, “PubChem BioAssay data set” (2004).

Assay type in all cases: functional
The subject of one assay is BJ. Nature of the assay: cytotoxicity toward BJ-TERT fibroblasts, dose response, cell-based, RAS-independent, luminescence (AID 1933). The conditions noted are these: Homo sapiens.
Assay [1] in a line: NIH-3T3 fibroblast cytotoxicity, dose response, cytotoxicity control, cell-based, fluorescence, Alamar Blue, secondary assay (AID 2327). (Alamar Blue is a resazurin reagent that responds to reducing activity.)
Assay [2] can be described thus: Counterscreen for AddAB inhibitors: absorbance-based bacterial cell-based high throughput dose response assay for inhibitors of bacterial viability. [Related pubchem assays (depositor defined):AID435030, AID449728, AID449731, AID488942, AID488955, AID488956]. (In general: The purpose of a counterscreen is to sort out artefacts and off-target activity.)
Assay [3] has as its target Serine/threonine-protein kinase D2 (Homo sapiens, UniProt Q9BZL6).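 Further: measured against PRKD2 as one member of a kinome-wide kinase profiling panel.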
Assay [4] concerns the target Mitogen-activated protein kinase kinase kinase kinase 2 (Homo sapiens, UniProt Q12851).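 Further: measured as one member of a kinome-wide kinase panel, with MAP4K2 as the panel entry.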
Assay [5] concerns the target Serine/threonine-protein kinase BRSK1 (Homo sapiens, UniProt Q8TDC3).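 Further: measured within a kinome-wide kinase panel, with the target listed as KIAA1811.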
Assay [6] addresses Tyrosine-protein kinase FRK (Homo sapiens, UniProt P42685).
The target in assay [7] is Serine/threonine-protein kinase D3 (Homo sapiens, UniProt O94806).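 Further: determined within a kinase panel screen, with PRKCN as the panel member.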
Assay [8] concerns the target Homeodomain-interacting protein kinase 4 (Homo sapiens, UniProt Q8NE63).
Another assay concerns the target Aurora kinase A (Homo sapiens, UniProt O14965).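 Further: value from the Navigating the Kinome kinase panel profiling, panel entry STK6.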
In assay [9] the target is Serine/threonine-protein kinase PAK 4 (Homo sapiens, UniProt O96013).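 Further: value obtained within a kinome profiling panel in which PAK4 was one of the panel members.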
The target in assay [10] is Casein kinase I isoform alpha (Homo sapiens, UniProt P48729).
In assay [11] the target is Receptor-type tyrosine-protein kinase FLT3 (Homo sapiens, UniProt P36888).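 Further: FLT3 was tested as one member of a kinome-wide kinase panel.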
The target in assay [12] is Tyrosine-protein kinase Fer (Homo sapiens, UniProt P16591).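 Further: FER tested as one member of a kinome panel.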
Assay [13] has as its target Tyrosine-protein kinase Lck (Homo sapiens, UniProt P06239).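 Further: lck was assayed as one member of a kinase panel.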
For assay [14], the target named is Mast/stem cell growth factor receptor Kit (Homo sapiens, UniProt P10721).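 Further: KIT entry within a kinase panel assay.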
In assay [15] the target is Serine/threonine-protein kinase Chk2 (Homo sapiens, UniProt O96017).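 Further: CHEK2 entry within a kinome-wide screening panel.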
Assay [16] addresses Cyclin-dependent kinase 1 (Homo sapiens, UniProt P06493).
For assay [17], the target named is Serine/threonine-protein kinase PLK4 (Homo sapiens, UniProt O00444).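 Further: PLK4 measured as one member of a kinome-wide kinase profiling panel.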
The target in assay [18] is STE20-like serine/threonine-protein kinase (Homo sapiens, UniProt Q9H2G2).
Assay [19] deals with Proto-oncogene tyrosine-protein kinase Src (Homo sapiens, UniProt P12931).
Assay [20] has as its target Tyrosine-protein kinase receptor TYRO3 (Homo sapiens, UniProt Q06418).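 Further: TYRO3 value obtained as one member of a kinome-wide profiling panel.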
Assay [21] addresses cAMP-dependent protein kinase catalytic subunit alpha (Homo sapiens, UniProt P17612).
The target in assay [22] is ALK tyrosine kinase receptor (Homo sapiens, UniProt Q9UM73).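 Further: ALK tested as one member of a kinase panel screen.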
Assay [23] has as its target Receptor tyrosine-protein kinase erbB-2 (Homo sapiens, UniProt P04626). Nature of the assay: Navigating the Kinome. Panel member name: ERBB2.
In assay [24] the target is Death-associated protein kinase 3 (Homo sapiens, UniProt O43293).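 Further: measured as one member of a kinome-wide profiling panel.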
The target in assay [25] is Tyrosine-protein kinase Srms (Homo sapiens, UniProt Q9H3Y6).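 Further: SRMS measured as one member of a kinome-wide kinase profiling panel.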
In assay [26] the target is Serine/threonine-protein kinase N2 (Homo sapiens, UniProt Q16513).
The target of assay [27] is Tyrosine-protein kinase Fyn (Homo sapiens, UniProt P06241).
In assay [28] the target is Vascular endothelial growth factor receptor 2 (Homo sapiens, UniProt P35968).

Sequence of Serine/threonine-protein kinase Chk2 (O96017 whole entry): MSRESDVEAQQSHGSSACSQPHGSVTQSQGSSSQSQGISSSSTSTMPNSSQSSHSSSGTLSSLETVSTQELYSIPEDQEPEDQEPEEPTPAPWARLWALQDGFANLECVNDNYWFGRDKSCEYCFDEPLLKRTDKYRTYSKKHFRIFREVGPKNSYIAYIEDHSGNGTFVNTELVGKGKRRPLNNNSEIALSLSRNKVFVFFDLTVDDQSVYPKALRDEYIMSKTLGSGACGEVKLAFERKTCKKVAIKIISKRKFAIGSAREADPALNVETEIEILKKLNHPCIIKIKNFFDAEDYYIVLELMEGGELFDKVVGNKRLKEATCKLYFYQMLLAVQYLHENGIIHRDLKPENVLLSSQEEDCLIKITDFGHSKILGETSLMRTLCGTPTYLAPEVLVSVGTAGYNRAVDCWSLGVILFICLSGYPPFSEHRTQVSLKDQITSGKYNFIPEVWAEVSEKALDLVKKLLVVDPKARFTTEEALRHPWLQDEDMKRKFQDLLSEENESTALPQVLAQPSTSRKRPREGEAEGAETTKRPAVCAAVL
Sequence of Serine/threonine-protein kinase PAK 4 (O96013 whole entry, canonical isoform): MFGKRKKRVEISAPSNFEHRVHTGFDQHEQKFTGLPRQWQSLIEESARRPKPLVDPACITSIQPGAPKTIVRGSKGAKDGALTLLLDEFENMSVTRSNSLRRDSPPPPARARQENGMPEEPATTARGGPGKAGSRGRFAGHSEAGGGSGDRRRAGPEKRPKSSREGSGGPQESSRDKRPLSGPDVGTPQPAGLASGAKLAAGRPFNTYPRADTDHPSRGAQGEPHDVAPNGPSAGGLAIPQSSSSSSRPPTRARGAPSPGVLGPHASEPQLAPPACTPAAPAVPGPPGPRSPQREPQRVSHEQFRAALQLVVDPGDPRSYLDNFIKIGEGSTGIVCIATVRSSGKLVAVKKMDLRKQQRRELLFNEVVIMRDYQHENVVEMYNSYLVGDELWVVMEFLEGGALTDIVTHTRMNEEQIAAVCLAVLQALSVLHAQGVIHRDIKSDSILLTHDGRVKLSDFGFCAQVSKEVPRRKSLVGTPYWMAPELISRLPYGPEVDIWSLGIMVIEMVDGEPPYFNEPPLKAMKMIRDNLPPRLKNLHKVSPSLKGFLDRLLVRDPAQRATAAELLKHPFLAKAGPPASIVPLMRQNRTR
Sequence of Serine/threonine-protein kinase PLK4 (O00444 whole entry): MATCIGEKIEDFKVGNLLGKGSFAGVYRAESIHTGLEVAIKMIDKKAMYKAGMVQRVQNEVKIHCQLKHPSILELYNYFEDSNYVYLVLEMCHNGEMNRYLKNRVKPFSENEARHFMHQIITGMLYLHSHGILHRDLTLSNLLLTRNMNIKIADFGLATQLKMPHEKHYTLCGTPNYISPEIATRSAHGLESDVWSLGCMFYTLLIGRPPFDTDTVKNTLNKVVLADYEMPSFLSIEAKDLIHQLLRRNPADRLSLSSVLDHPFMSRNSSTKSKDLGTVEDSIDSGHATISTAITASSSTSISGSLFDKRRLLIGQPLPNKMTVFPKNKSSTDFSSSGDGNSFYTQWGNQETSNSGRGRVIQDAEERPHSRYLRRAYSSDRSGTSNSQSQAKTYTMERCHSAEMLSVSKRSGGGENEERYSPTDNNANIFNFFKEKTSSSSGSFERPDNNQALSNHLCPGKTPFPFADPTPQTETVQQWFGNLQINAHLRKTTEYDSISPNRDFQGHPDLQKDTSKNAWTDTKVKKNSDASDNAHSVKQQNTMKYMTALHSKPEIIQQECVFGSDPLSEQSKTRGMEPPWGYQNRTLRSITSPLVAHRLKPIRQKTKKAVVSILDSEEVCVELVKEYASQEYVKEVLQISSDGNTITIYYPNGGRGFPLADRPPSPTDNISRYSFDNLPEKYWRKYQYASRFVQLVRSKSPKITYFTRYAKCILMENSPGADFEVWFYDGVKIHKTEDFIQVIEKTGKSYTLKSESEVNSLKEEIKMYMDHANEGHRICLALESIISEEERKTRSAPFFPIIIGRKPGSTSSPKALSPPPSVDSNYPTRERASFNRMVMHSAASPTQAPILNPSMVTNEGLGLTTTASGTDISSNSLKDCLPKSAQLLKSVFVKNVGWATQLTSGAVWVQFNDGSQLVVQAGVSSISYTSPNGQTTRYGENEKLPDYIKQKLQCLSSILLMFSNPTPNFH
Sequence of Tyrosine-protein kinase FRK (P42685 whole entry): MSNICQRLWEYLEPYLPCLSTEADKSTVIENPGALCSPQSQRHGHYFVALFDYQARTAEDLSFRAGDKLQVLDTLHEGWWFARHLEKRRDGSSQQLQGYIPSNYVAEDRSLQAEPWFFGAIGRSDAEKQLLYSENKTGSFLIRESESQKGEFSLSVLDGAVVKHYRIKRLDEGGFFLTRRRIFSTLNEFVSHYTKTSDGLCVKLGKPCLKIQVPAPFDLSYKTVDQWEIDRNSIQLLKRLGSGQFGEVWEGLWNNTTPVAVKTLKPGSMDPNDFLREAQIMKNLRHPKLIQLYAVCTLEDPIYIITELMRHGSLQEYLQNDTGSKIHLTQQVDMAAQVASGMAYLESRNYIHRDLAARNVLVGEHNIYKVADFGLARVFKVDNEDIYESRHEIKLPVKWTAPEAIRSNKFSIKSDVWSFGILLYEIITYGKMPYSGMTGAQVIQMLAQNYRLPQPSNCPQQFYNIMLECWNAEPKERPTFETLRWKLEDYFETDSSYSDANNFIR
Sequence of Tyrosine-protein kinase Fer (P16591 whole entry): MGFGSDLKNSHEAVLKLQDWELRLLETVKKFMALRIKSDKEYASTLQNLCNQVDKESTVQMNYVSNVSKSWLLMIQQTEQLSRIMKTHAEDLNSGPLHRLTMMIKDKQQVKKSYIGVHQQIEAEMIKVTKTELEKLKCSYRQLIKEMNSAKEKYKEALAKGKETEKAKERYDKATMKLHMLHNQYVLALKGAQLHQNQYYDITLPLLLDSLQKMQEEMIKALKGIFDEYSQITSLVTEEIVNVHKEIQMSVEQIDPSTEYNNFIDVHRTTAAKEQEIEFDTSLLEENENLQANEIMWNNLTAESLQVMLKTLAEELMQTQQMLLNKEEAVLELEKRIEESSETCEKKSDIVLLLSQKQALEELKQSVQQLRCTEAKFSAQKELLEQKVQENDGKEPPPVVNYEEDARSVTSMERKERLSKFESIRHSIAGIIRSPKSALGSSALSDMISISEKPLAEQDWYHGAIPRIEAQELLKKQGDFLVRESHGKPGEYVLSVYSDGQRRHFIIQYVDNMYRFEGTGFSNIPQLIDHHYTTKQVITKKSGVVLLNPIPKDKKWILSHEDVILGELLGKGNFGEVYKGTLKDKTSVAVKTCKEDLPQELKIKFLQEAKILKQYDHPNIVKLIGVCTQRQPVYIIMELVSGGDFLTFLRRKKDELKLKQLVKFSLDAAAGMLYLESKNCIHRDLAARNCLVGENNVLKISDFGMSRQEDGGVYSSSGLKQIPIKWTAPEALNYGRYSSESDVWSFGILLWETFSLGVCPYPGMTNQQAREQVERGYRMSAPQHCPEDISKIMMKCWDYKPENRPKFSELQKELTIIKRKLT
Sequence of Serine/threonine-protein kinase N2 (Q16513 whole entry): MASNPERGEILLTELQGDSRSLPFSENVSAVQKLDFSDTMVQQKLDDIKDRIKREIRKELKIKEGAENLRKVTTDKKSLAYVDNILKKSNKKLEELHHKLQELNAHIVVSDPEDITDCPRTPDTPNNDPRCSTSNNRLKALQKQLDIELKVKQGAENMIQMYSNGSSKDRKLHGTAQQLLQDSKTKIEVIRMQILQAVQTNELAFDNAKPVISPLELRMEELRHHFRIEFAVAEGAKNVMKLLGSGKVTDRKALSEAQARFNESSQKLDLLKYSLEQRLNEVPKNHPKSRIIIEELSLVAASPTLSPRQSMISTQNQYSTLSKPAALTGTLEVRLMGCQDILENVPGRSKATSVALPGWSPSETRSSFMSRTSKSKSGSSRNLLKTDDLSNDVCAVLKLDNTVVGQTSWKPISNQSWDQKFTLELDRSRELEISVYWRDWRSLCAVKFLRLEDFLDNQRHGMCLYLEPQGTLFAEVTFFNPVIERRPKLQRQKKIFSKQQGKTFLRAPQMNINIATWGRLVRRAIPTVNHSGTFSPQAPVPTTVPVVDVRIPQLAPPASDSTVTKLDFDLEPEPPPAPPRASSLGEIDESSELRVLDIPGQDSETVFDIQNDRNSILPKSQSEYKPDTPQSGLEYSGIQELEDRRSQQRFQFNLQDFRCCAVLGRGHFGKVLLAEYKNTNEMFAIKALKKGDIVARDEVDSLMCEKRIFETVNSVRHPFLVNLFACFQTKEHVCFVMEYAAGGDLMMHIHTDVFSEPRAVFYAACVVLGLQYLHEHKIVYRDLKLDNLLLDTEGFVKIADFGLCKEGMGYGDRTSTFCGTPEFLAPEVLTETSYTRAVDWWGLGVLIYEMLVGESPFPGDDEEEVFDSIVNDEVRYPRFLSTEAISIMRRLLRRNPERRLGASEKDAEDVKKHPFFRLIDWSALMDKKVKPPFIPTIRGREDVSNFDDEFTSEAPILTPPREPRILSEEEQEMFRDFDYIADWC
Sequence of Aurora kinase A (O14965 whole entry): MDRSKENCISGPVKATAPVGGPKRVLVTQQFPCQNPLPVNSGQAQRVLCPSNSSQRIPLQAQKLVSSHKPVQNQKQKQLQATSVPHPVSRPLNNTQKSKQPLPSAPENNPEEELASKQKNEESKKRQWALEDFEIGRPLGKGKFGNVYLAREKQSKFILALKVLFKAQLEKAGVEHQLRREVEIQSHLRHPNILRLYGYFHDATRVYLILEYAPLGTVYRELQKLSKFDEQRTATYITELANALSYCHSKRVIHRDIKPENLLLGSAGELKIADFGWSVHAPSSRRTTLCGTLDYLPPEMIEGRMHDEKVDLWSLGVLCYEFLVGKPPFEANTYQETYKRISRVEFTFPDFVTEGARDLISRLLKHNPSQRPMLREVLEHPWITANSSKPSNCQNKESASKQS

The term EC50 denotes the concentration at which the effect is half-maximal. In general, IC50 refers to the concentration that gives 50% inhibition. Take `COc1ccc(-c2nnc(NC(=O)c3ccc(F)cc3)o2)cc1`: the EC50 with BJ is 61700 nM (active); in assay [1], > 150000 nM (inactive). Besides, in assay [2], the IC50 was > 118000 nM (inactive).
Broadly, the Ki is the equilibrium dissociation constant of an inhibitor or competing ligand from its target. Turning to `CCn1c(-c2nonc2N)nc2cnc(Oc3cccc(NC(=O)c4ccc(OCCN5CCOCC5)cc4)c3)cc21` [GSK-269962A], the Ki is 2000 nM (active) in [3]; > 6310 nM (inactive) in [4]; > 10000 nM (inactive) in assay [5]; > 2510 nM (inactive) in [6]; 2510 nM (active) in [7]; 5010 nM (active) in assay [8]. The Ki at Aurora kinase A was 501 nM (active); in assay [9], > 5010 nM (inactive); in assay [10], > 6310 nM (inactive); in assay [11], 1580 nM (active); in assay [12], > 1580 nM (inactive); in assay [13], 2510 nM (active). Besides, the Ki was > 1260 nM (inactive) in [14]; > 1580 nM (inactive) in [15]; > 7940 nM (inactive) in assay [16]; 316 nM (active) in [17]; 1580 nM (active) in [18]; > 2000 nM (inactive) in [19]. In addition, the Ki was > 2000 nM (inactive) in assay [20]; 31.6 nM (active) in [21]; > 1260 nM (inactive) in assay [22]; > 1580 nM (inactive) in assay [23]; 501 nM (active) in assay [24]; > 1580 nM (inactive) in assay [25]. The values for the inhibition constant (Ki) in assay [26], in assay [27] and in assay [28] were 25.1 nM (active), > 794 nM (inactive) and > 7940 nM (inactive), respectively.
